Measurements: patent US20100009949A1, “NOVEL METHOD” (BioXell S.p.A., priority 2001, published 2010)

Legend:
[1] = tested on: DU145 cells; assay: Annexin-V binding assay (phosphatidylserine exposure, apoptosis); format: cell-based, human; conditions: DU145, 8 hours, 1×10^−8 M; control 57±1.7; n=6, p=0.017
Procedure: Annexin-V binding assay. Annexin-V binding assay was used to detect translocation of membrane phosphatidylserine (PS) from the inner to the outer side of the plasma membrane, since the exposure of PS is considered an early sign of apoptosis (Kagan et al. 2000). The assay was performed by using the “Annexin-V-Fluos staining Kit” (Roche). Before treatment, cells (1×10^6) were kept in serum-free medium for at least 24 h, then cells were incubated for 8 hours in the presence or absence of Compound 1 (1×10^−8 M), cells (1×10^6) were washed, trypsinized, centrifuged. After two washed in PBS, cells were resuspended in 100 ul of incubation buffer (supplied by manufacturer), 2 ul of Annexin-V-Fluos labeling reagent (Ann-V-F, Annexin-V conjugated to fluorescein, supplied at the 200× concentration by Roche) and 2 ul of propidium iodide solution (PI, 30 ug/ml in PBS) were added. After incubation (15 minutes in the dark at room temperature) samples were analyzed by flow cytometry. For each experimental set, two cell suspensions were prepared for instrumental setting and data analysis: 1) by omitting both Ann-V-F and PI staining (nonspecific fluorescence sample), and 2) by omitting only the PI staining (sample for compensation, see below). […] Fluorescence compensation was set by acquiring […] labeled with only Ann-V-F. For each sample 10.000 events were recorded at flow rate of 200/300 cells/s. […]

[2] = tested on: human BPH cells; conditions: primary cultures of human BPH cells; Crescioli et al. 2004; cited from earlier work
[3] = tested on: DU145 cells; assay: Matrigel invasion assay (Boyden chambers), DU145; format: cell-based, human; conditions: 1×10^−8 M, KGF 10 ng/ml, 24 h, no pre-incubation
Procedure: Invasion assay: Invasion assays were performed as described previously (Bonaccorsi et al. 2000 and 2004a and 2004b) according to Albini et al. (1987) using the Boyden chambers equipped with 8 um porosity polyvinylpyrrolidone-free polycarbonate filters (VWR International, Milan, Italy). A thin layer of Matrigel solution (50 ug/ml) was overlaid on the upper surface of the filter and allowed to gel by incubating the filters at 37° C. for 30 min. Cell ability to invade the substrate was assessed by using some different stimuli: keratinocyte growth factor, KGF (10 ng/ml), in presence or in absence of the inhibitor, 1-alpha-fluoro-25-hydroxy-16,23E-diene-26,27-bishomo-20-epi-cholecalciferol (1×10^−8 M). These molecules were added to the bottom well of the Boyden chambers. 9.5×10^4 cells were then added to the top of the chambers and incubated for 24 h at 37° C. Migrated cells were quantitated by counting cells with a Zeiss microscope (Oberkochen, Germany) equipped with brightfield optics (40× magnification). Results are expressed as the percentage of number of migrated cells per high-power field respect to control.

[4] = tested on: DU145 cells; assay: Cell proliferation assay (cell counting), DU145; format: cell-based, human
Procedure: (§1) Cell proliferation assay: All proliferation tests were performed after 24 h of cell starvation in phenol red- and serum-free medium containing 0.1% BSA. After starvation, cells were incubated in the same medium as before, with or without specific stimuli. Thereafter, cells were trypsinized, and each experimental point was derived from counting in the hemocytometer and then averaging at least six different fields for each well as previously reported (Crescioli et al. 2003). Experiments were performed seeding 4×10^4 cells onto 12-well plates in growth medium and incubated for 48 h with: 1) increasing concentrations of 1-alpha-fluoro-25-hydroxy-16,23E-diene-26,27-bishomo-20-epi-cholecalciferol (1×10^−12, 1×10^−11, 1×10^−10, 1×10^−9, 1×10^−8 M) with or without fixed concentration of KGF (10 ng/ml) or fixed concentration of bFGF (10 ng/ml); 2) fixed concentration of LY 294002 (10 nM) with or without KGF (10 ng/ml). In the same experiment each experimental point was repeated in triplicate and experiments were performed at least three times. Cell growth results are expressed as the percentage of growth compared with their relative controls.
Statistical analysis: All the data are shown as mean±SEM of the indicated number of experiments. Statistical analysis was performed with ANOVA and Student's T test for unpaired and, when applicable, for paired data. IC50 for dose response curves were calculated using the program ALLFIT.

[5] = tested on: KGF receptor (KGFR); assay: KGF-induced KGFR autotransphosphorylation (immunoprecipitation, Western blot) in DU145 cells; format: cell-based, human
Procedure: (§2) Immunoprecipitation and Western blot analysis. Protein extraction and immunoprecipitation were performed as previously described (Bonaccorsi et al. 1997). Briefly, cells were scraped in PBS supplemented with 1 mM Na3VO4, centrifuged and resuspended in lysis buffer (20 mM Tris, pH 7.4, 150 mM NaCl, 0.25% NP-40, 1 mM Na3VO4, 1 mM phenylmethyl-sulfonyl fluoride (PMSF)). After protein measurement (Coomassie kit), aliquots of cell lysates containing equal amount of proteins (500 ug) were incubated for 1 hour with 30 ul of Protein A (or Protein G)-Sepharose for preclearing. Precleared lysates were then incubated for 1 hour using 5 ug of specific anti-KGFR antibodies on ice followed by overnight incubation at 4° C. with 30 ul of Protein A (or Protein G)-Sepharose. The immunobeads were washed three times in lysis buffer and then resuspended in 10 ul of 2× Laemmli's reducing sample buffer (62.5 mM Tris pH 6.8, 10% glycerol, 2% SDS, 2.5% pyronin and 200 mM dithiothreitol), boiled at 95° C. for 5 minutes and loaded onto 8% polyacrylamide-bisacrylamide gels. […]

[6] = tested on: prostate; conditions: intact and castrated, testosterone-replaced rats; Crescioli et al. 2004; cited from earlier work
[7] = tested on: prostate; conditions: phase II clinical trials for BPH, preliminary results (Montorsi, 2005); cited from earlier work
[8] = tested on: PI3K; assay: PI3K assay (immunokinase) after KGF stimulation of DU145 cells; format: cell-based, human; conditions: DU145, 1×10^−8 M, KGF 10 ng/ml
Procedure: PI3K assay: PI3K activity was evaluated in vitro assay as previously described (Luconi et al. 2004). Briefly, cells were stimulated with KGF (5 min) in the presence or absence of 1-alpha-fluoro-25-hydroxy-16,23E-diene-26,27-bishomo-20-epi-cholecalciferol, scraped in PBS supplemented with 1 mM Na3VO4, centrifuged and extracted with lysis buffer (20 mM Tris, pH 7.4, 137 mM NaCl, 1 mM CaCl2, 1 mM MgCl2, 1% NP-40, 1 mM Na3VO4, 1 mM PMSF). After measurement of proteins, the aliquots of cell extracts containing equivalent amount of proteins (500 ug) were incubated for 1 hour with 50 ul of Protein G-Sepharose for preclearing. Precleared lysates were then incubated with an antiphosphotyrosine PY20 antibody overnight at 4° C. with 50 ul of Protein G-Sepharose as described above. The Sepharose beads were washed two times with lysis buffer and twice with a 10 mM Tris-HCl (pH 7.4) containing 0.1 mM EGTA and 5 mM LiCl. After removal of the last wash, the beads were suspended in kinase buffer (10 mM Tris-HCl, 150 mM NaCl, 5 mM EDTA) containing 20 ug of L-alpha-phosphatidylinositol, 25 mM MgCl2 and 10 uCi of [gamma-^32P]ATP, and incubated for 20 min at room temperature. The reaction was stopped by the addition of 60 ul of HCl 6M and 160 ul of a mixture of chloroform and methanol (1:1). […] Quantifications of the bands was performed using a Kodak image analysis system.

[9] = tested on: AKT; assay: AKT serine phosphorylation (Western blot) in KGF-stimulated DU145 cells; format: cell-based, human; conditions: DU145, 1×10^−8 M, KGF 10 ng/ml
Procedure: as §2

[10] = tested on: PC3 cells; assay: Cell proliferation assay (cell counting), PC3; format: cell-based, human; conditions: control 100±17
Procedure: as §1

Molecule: C=C1/C(=C\C=C2/CCC[C@]3(C)C([C@@H](C)C/C=C/C(O)(CC)CC)=CC[C@@H]23)C[C@@H](O)C[C@@H]1F [Compound 1, 1-alpha-fluoro-25-hydroxy-16,23E-diene-26,27-bishomo-20-epi-cholecalciferol]
- percentage Annexin-V positive live cells [1]: 62±1.2 percentage
- Effect on prostate cell proliferation in vitro [2]: decrease prostate cell proliferation
- Effect on KGF-stimulated Matrigel invasion of DU145 cells [3]: completely inhibited
- percentage number of cells, bFGF + Compound 1 ([4]; DU145, bFGF 10 ng/ml + Compound 1 1×10^−8 M, control 100±8.6): 74.1±9.2 percentage
- IC50 ([4]; Homo sapiens, DU-145, basal, 48 h, cell counting, read-out: IC50 of inhibition of basal DU145 cell proliferation): 0.0221 ± 0.0191 nM
- Inhibition of KGF-stimulated DU145 proliferation ([4]; KGF 10 ng/ml, 48 h, increasing concentrations of the analogue): completely and dose-dependently inhibits proliferation
- Effect on KGF-induced autotransphosphorylation of KGFR ([5]; DU145, 5 minutes pre-incubation, 1×10^−8 M, KGF 10 ng/ml): abrogated
- Inhibitory effect on KGFR autophosphorylation after alpha-amanitin ([5]; DU145, after 4 hours incubation with 4 ug/ml alpha-amanitin): still present
- Effect on prostate growth in vivo [6]: inhibition of prostate growth
- Prostate volume compared to placebo [7]: significant reduction of prostate volume
- Effect on KGF-stimulated PI3K activity [8]: inhibited the stimulatory effect of KGF on PI3K activity
- Effect on KGF-stimulated AKT serine phosphorylation [9]: inhibited KGF-stimulated AKT serine phosphorylation
- percentage number of cells, KGF + Compound 1 ([10]; PC3, KGF 10 ng/ml + Compound 1 1×10^−8 M): 69.9±9.9 percentage

Molecule: bFGF: growth factor used as stimulus of DU145 proliferation (10 ng/ml)
- percentage number of cells, bFGF alone ([4]; DU145, bFGF 10 ng/ml, control 100±8.6): 138±19.5 percentage

B1: KGF: Keratinocyte growth factor, stimulus, obtained from Prepro Tech EC (protein, UniProt P21781 32-194, looked up)
Fibroblast growth factor 7: CNDMTPEQMATNVNCSSPERHTRSYDYMEGGDIRVRRLFCRTQWYLRIDKRGKVKGTQEMKNNYNIMEIRTVAVGIVAIKGVESEFYLAMNKEGKLYAKKECNEDCNFKELILENHYNTYASAKWTHNGGEMFVALNQKGIPVRGKKTKKEQKTAHFLPMAIT
- percentage number of cells, KGF alone ([10]; PC3, KGF 10 ng/ml): 121.3±13 percentage
